One assay deals with T1, TGF-β R1 ALK5 (Homo sapiens, UniProt P36897).
T1 construct: purchased Invitrogen PV5837
T1 sequence (P36897 34-503): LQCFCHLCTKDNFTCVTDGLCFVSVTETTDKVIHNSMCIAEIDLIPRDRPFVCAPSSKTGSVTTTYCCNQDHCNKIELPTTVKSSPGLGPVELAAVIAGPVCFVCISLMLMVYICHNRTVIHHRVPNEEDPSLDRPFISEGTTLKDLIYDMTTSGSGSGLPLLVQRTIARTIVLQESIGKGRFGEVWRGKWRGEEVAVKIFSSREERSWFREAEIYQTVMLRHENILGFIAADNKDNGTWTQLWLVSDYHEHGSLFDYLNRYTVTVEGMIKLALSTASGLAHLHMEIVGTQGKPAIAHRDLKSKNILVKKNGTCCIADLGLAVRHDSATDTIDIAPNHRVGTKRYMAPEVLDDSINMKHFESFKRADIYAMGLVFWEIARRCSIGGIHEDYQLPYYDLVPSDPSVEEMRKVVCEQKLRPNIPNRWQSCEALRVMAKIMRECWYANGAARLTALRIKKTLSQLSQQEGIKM
The experiment in a line: In vitro inhibition of ALK5 (LanthaScreen activity assay, TR-FRET). Type of assay: biochemical. On the technique in general: TR-FRET usually uses a lanthanide donor and a delayed reading to cut background.

In another assay the target is T2, cellular TGF-β R1 ALK5 (Homo sapiens, UniProt P36897).
T2 construct: host or cells: CellSensor SBE-bla HEK 293T
T2 sequence (P36897 34-503): T1 sequence (P36897 34-503)
The assay can be described thus: Cellular inhibition of ALK5 (CellSensor SBE-bla HEK 293T beta-lactamase reporter). Type of assay: cell-based. The settings on record: cellular inhibition of ALK5, SBE-bla HEK 293T cells, TGFb-1 stimulated 5 hours; average where measured in multiple experiments. In outline:
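SBE-bla HEK 293T beta-lactamase reporter cells pre-incubated 1 h at 37 °C with 2.5-fold serially diluted compounds (0.5% DMSO), then stimulated 5 h with TGFb-1 (100 ng/mL stock).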

Each structure is given as a SMILES string. Where only a bound is given, the exact number is not on record here.

As a reminder, the IC50 is the concentration that gives 50% inhibition. The low end stands for higher potency, the high end for lower potency. Consider `Cc1ccc(F)c(-c2cc(Nc3ccnc4cnn(CC(F)F)c34)ccn2)n1` [Example 105, 1-(2,2-difluoroethyl)-N-(3′-fluoro-6′-methyl-2,2′-bipyridin-4-yl)-1H-pyrazolo[4,3-b]pyridin-7-amine], for which the IC50 at TGF-β R1 ALK5 was 20 nM; at cellular TGF-β R1 ALK5, 39.8 nM.

Consider `Cc1ccc(F)c(-c2cc(Nc3ccnc4cnn(C[C@H](C)O)c34)ccn2)n1` [Example 106, (S)-1-(7-(3′-fluoro-6′-methyl-2,2′-bipyridin-4-ylamino)-1H-pyrazolo[4,3-b]pyridin-1-yl)propan-2-ol], for which the IC50 at TGF-β R1 ALK5 was 126 nM; at cellular TGF-β R1 ALK5 it was 1260 nM.

Turning to `Cc1ccc(F)c(-c2cc(Nc3ccnc4cn(C[C@H](C)O)nc34)ccn2)n1` [Example 107, (S)-1-(7-(3′-fluoro-6′-methyl-2,2′-bipyridin-4-ylamino)-2H-pyrazolo[4,3-b]pyridin-2-yl)propan-2-ol], the IC50 on TGF-β R1 ALK5 was 6.31 nM; against cellular TGF-β R1 ALK5, 39.8 nM.

As to `Cc1cnc(-c2cc(F)ccc2F)cc1Nc1ccnc2cn[nH]c12` [Example 108, N-(2-(2,5-difluorophenyl)-5-methylpyridin-4-yl)-1H-pyrazolo[4,3-b]pyridin-7-amine], the IC50 against TGF-β R1 ALK5 is 1 nM; against cellular TGF-β R1 ALK5, 7.94 nM.

For the compound `CCNC(=O)n1ncc2nccc(Nc3cc(-c4cc(F)ccc4F)ncc3C)c21` [Example 109, 7-(2-(2,5-difluorophenyl)-5-methylpyridin-4-ylamino)-N-ethyl-1H-pyrazolo[4,3-b]pyridine-1-carboxamide], the half-maximal inhibitory concentration (IC50) was 1.58 nM against TGF-β R1 ALK5 and 20 nM against cellular TGF-β R1 ALK5.

Consider `Cc1cnc(-c2cc(F)ccc2F)cc1Nc1ccnc2cnn(C(=O)NC(C)C)c12` [Example 110, 7-(2-(2,5-difluorophenyl)-5-methylpyridin-4-ylamino)-N-isopropyl-1H-pyrazolo[4,3-b]pyridine-1-carboxamide], for which the concentration for half-maximal inhibition (IC50) on TGF-β R1 ALK5 is 5.01 nM; on cellular TGF-β R1 ALK5, 158 nM.

For `CNC(=O)Cn1cc2nccc(Nc3ccnc(-c4nc(C)ccc4F)c3)c2n1` [Example 111, 2-(7-(3′-fluoro-6′-methyl-2,2′-bipyridin-4-ylamino)-2H-pyrazolo[4,3-b]pyridin-2-yl)-N-methylacetamide], the IC50 is 501 nM against TGF-β R1 ALK5 and 12600 nM against cellular TGF-β R1 ALK5.

Consider `Cc1ccc(F)c(-c2cc(Nc3ccnc4cn(CC(O)C(F)(F)F)nc34)ccn2)n1` (centres unmarked) [Example 112, 1,1,1-trifluoro-3-(7-(3′-fluoro-6′-methyl-2,2′-bipyridin-4-ylamino)-2H-pyrazolo[4,3-b]pyridin-2-yl)propan-2-ol], for which the 50% inhibitory concentration (IC50) against TGF-β R1 ALK5 was 63.1 nM; at cellular TGF-β R1 ALK5 it was 501 nM.

Take `Cc1ccc(F)c(-c2cc(Nc3ccnc4cnn(CC(O)C(F)(F)F)c34)ccn2)n1` (centres unmarked) [Example 113, 1,1,1-trifluoro-3-(7-(3′-fluoro-6′-methyl-2,2′-bipyridin-4-ylamino)-1H-pyrazolo[4,3-b]pyridin-1-yl)propan-2-ol]: the IC50 was 50.1 nM against TGF-β R1 ALK5 and 1580 nM on cellular TGF-β R1 ALK5.

As to `Cc1ccc(F)c(-c2cc(Nc3ccnc4cn(C[C@@H](C)O)nc34)ccn2)n1` [Example 114, (R)-1-(7-(3′-fluoro-6′-methyl-2,2′-bipyridin-4-ylamino)-2H-pyrazolo[4,3-b]pyridin-2-yl)propan-2-ol], the results for the IC50 against TGF-β R1 ALK5 and against cellular TGF-β R1 ALK5 were 158 nM and 1260 nM, respectively.

Consider `CCNC(=O)n1ncc2nccc(Nc3cc(-c4nc(C)ccc4F)ncc3C)c21` [Example 115, N-ethyl-7-(3′-fluoro-5,6′-dimethyl-2,2′-bipyridin-4-ylamino)-1H-pyrazolo[4,3-b]pyridine-1-carboxamide], for which the concentration for half-maximal inhibition (IC50) at TGF-β R1 ALK5 is less than 1 nM; at cellular TGF-β R1 ALK5, 6.31 nM.

For `CNC(=O)n1ncc2nccc(Nc3cc(-c4cc(F)ccc4F)ncc3C)c21` [Example 116, 7-(2-(2,5-difluorophenyl)-5-methylpyridin-4-ylamino)-N-methyl-1H-pyrazolo[4,3-b]pyridine-1-carboxamide], the results for the IC50 on TGF-β R1 ALK5 and on cellular TGF-β R1 ALK5 were 1 nM and 25.1 nM, respectively.

Take `Cc1ccc(F)c(-c2cc(Nc3ccnc4cnn(CC(=O)NC5CC5)c34)c(C)cn2)n1` [Example 117, N-cyclopropyl-2-(7-(3′-fluoro-5,6′-dimethyl-2,2′-bipyridin-4-ylamino)-1H-pyrazolo[4,3-b]pyridin-1-yl)acetamide]: the IC50 at TGF-β R1 ALK5 is 10 nM; on cellular TGF-β R1 ALK5, 126 nM.

Consider `Cc1ccc(F)c(-c2cc(Nc3ccnc4cn(CC(=O)NC5CC5)nc34)c(C)cn2)n1` [Example 118, N-cyclopropyl-2-(7-(3′-fluoro-5,6′-dimethyl-2,2′-bipyridin-4-ylamino)-2H-pyrazolo[4,3-b]pyridin-2-yl)acetamide], for which the concentration for half-maximal inhibition (IC50) is 100 nM at TGF-β R1 ALK5 and 794 nM at cellular TGF-β R1 ALK5.

Consider `Cc1ccc(F)c(-c2cc(Nc3ccnc4cn(CCC(C)(C)O)nc34)ccn2)n1` [Example 119, 4-(7-(3′-fluoro-6′-methyl-2,2′-bipyridin-4-ylamino)-2H-pyrazolo[4,3-b]pyridin-2-yl)-2-methylbutan-2-ol], for which the IC50 against TGF-β R1 ALK5 was 20 nM; against cellular TGF-β R1 ALK5, 79.4 nM.

Consider `Cc1ccc(F)c(-c2cc(Nc3ccnc4cn(CCC(C)(C)O)nc34)c(C)cn2)n1` [Example 120, 4-(7-(3′-fluoro-5,6′-dimethyl-2,2′-bipyridin-4-ylamino)-2H-pyrazolo[4,3-b]pyridin-2-yl)-2-methylbutan-2-ol], for which the values for the IC50 at TGF-β R1 ALK5 and against cellular TGF-β R1 ALK5 were 20 nM and 200 nM, respectively.

Take `Cc1ccc(F)c(-c2cc(Nc3ccnc4cn(C5CC5)nc34)ccn2)n1` [Example 121, 2-cyclopropyl-N-(3′-fluoro-6′-methyl-2,2′-bipyridin-4-yl)-2H-pyrazolo[4,3-b]pyridin-7-amine]: the half-maximal inhibitory concentration (IC50) against TGF-β R1 ALK5 is 3.16 nM; at cellular TGF-β R1 ALK5, 12.6 nM.

Consider `Cc1ccc(F)c(-c2cc(Nc3ccnc4cn(C5CC5)nc34)c(C)cn2)n1` [Example 122, 2-cyclopropyl-N-(3′-fluoro-5,6′-dimethyl-2,2′-bipyridin-4-yl)-2H-pyrazolo[4,3-b]pyridin-7-amine], for which the IC50 is 2 nM at TGF-β R1 ALK5 and 10 nM at cellular TGF-β R1 ALK5.

Take `Cc1ccc(F)c(-c2cc(Nc3ccnc4cnn(C)c34)c(C)cn2)n1` [Example 124, N-(3′-fluoro-5,6′-dimethyl-2,2′-bipyridin-4-yl)-1-methyl-1H-pyrazolo[4,3-b]pyridin-7-amine]: the IC50 is 3.98 nM against TGF-β R1 ALK5 and 6.31 nM at cellular TGF-β R1 ALK5.

For `CCn1cc2nccc(Nc3ccnc(-c4nc(C)ccc4F)c3)c2n1` [Example 125, 2-ethyl-N-(3′-fluoro-6′-methyl-2,2′-bipyridin-4-yl)-2H-pyrazolo[4,3-b]pyridin-7-amine], the IC50 at TGF-β R1 ALK5 was 15.8 nM; against cellular TGF-β R1 ALK5 it was 39.8 nM.

For `CCn1cc2nccc(Nc3cc(-c4nc(C)ccc4F)ncc3C)c2n1` [Example 126, 2-ethyl-N-(3′-fluoro-5,6′-dimethyl-2,2′-bipyridin-4-yl)-2H-pyrazolo[4,3-b]pyridin-7-amine], the half-inhibitory concentration (IC50) on TGF-β R1 ALK5 is 10 nM; at cellular TGF-β R1 ALK5 it was 15.8 nM.

For `CCn1ncc2nccc(Nc3ccnc(-c4nc(C)ccc4F)c3)c21` [Example 127, 1-ethyl-N-(3′-fluoro-6′-methyl-2,2′-bipyridin-4-yl)-1H-pyrazolo[4,3-b]pyridin-7-amine], the half-maximal inhibitory concentration (IC50) on TGF-β R1 ALK5 is 7.94 nM; at cellular TGF-β R1 ALK5 it was 31.6 nM.

As to `Cc1cnc(-c2cc(Cl)ccc2F)cc1Nc1ccnc2cn(C)nc12` [Example 128, N-(2-(5-chloro-2-fluorophenyl)-5-methylpyridin-4-yl)-2-methyl-2H-pyrazolo[4,3-b]pyridin-7-amine], the IC50 against TGF-β R1 ALK5 was 6.31 nM; on cellular TGF-β R1 ALK5 it was 25.1 nM.

Take `Cc1ccc(F)c(-c2cc(Nc3ccnc4cn(CCF)nc34)c(C)cn2)n1` [Example 129, N-(3′-fluoro-5,6′-dimethyl-2,2′-bipyridin-4-yl)-2-(2-fluoroethyl)-2H-pyrazolo[4,3-b]pyridin-7-amine]: the IC50 against TGF-β R1 ALK5 is 6.31 nM; at cellular TGF-β R1 ALK5, 15.8 nM.

For `Cc1ccc(F)c(-c2cc(Nc3ccnc4cnn(CCF)c34)c(C)cn2)n1` [Example 130, N-(3′-fluoro-5,6′-dimethyl-2,2′-bipyridin-4-yl)-1-(2-fluoroethyl)-1H-pyrazolo[4,3-b]pyridin-7-amine], the IC50 was 3.98 nM against TGF-β R1 ALK5 and 20 nM against cellular TGF-β R1 ALK5.

Take `Cc1ccc(F)c(-c2cc(Nc3c(F)cnc4cn(C)nc34)c(C)cn2)n1` [Example 131, 6-fluoro-N-(3′-fluoro-5,6′-dimethyl-2,2′-bipyridin-4-yl)-2-methyl-2H-pyrazolo[4,3-b]pyridin-7-amine]: the values for the half-inhibitory concentration (IC50) at TGF-β R1 ALK5 and on cellular TGF-β R1 ALK5 were 3.16 nM and 10 nM, respectively.

`Cc1ccc(F)c(-c2cc(Nc3c(F)cnc4cnn(C)c34)c(C)cn2)n1` [Example 132, 6-fluoro-N-(3′-fluoro-5,6′-dimethyl-2,2′-bipyridin-4-yl)-1-methyl-1H-pyrazolo[4,3-b]pyridin-7-amine]: the results for the half-maximal inhibitory concentration (IC50) against TGF-β R1 ALK5 and against cellular TGF-β R1 ALK5 were 63.1 nM and 126 nM, respectively.

For `Cc1ccc(F)c(-c2cc(Nc3ccnc4cnn(C5CC5)c34)ccn2)n1` [Example 133, 1-cyclopropyl-N-(3′-fluoro-6′-methyl-2,2′-bipyridin-4-yl)-1H-pyrazolo[4,3-b]pyridin-7-amine], the 50% inhibitory concentration (IC50) against TGF-β R1 ALK5 was 5.01 nM; against cellular TGF-β R1 ALK5 it was 31.6 nM.

For the origin of these results see US9073918B2, “Pyrazolo[4,3-b]pyridine-7-amine inhibitors of ALK5” (Takeda Pharmaceutical Company Limited, priority 2010, dated 2015).
